Measurements as given in ChEMBL document CHEMBL3639186, “Modulators of serotonin receptor” (2013).

Target: 5-hydroxytryptamine receptor 7 (Rattus norvegicus, UniProt P32305)
Assay: Biological Assay: Compound affinity for the rat 5-HT7 receptor subtype was evaluated by competitive radioligand binding assay using 5-carboxamido[H3]typtamine ([3H]5-CT)(Amersham Biosciences) detection.

Sequence of 5-hydroxytryptamine receptor 7 (P32305 whole entry): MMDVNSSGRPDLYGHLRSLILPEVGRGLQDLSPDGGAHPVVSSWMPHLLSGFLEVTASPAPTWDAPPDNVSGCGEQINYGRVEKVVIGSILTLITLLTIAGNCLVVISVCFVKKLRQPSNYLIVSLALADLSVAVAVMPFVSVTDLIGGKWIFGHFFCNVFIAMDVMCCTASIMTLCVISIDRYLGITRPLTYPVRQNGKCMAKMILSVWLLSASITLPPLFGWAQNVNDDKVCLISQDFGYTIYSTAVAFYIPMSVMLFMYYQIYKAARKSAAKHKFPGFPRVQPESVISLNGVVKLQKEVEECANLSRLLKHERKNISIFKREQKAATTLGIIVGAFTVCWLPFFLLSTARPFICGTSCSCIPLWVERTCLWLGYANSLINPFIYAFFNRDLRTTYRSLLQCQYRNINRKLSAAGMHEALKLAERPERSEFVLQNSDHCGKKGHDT

Compound: Cc1cc(C#N)c(OC2CNC2)cc1-c1ccccc1
- Ki: ≥ 10 µM
